Results from patent publication US9358096B2, “Methods of treatment with drug eluting stents with prolonged local elution profiles with high local concentrations and low systemic concentrations” (Abbott Laboratories, priority 2007, dated 2016).
Where two headings read alike, the source gives them in different places.

Assay: everolimus arterial tissue concentration in and next to the stented vessel
Type: in vivo, swine
Settings: for Tmax: pig; for concentration at 3 days / concentration at 7 days / concentration at 28 days / concentration at 56 days / concentration at 90 days / concentration at 14 days: swine
[1] = 8×28 mm stent, 1070 μg everolimus (first aspect, matches group 1)
[2] = 10×28 mm stent, 1070 μg everolimus
[3] = 1070 μg, 8.0×28 mm stent, group 2, 1070 μg Lot #2, read-out: drug concentration in tissue proximal to stented region
[4] = 3209 μg, 8.0×28 mm stent, group 3, 3209 μg, read-out: drug concentration in tissue distal to stented region
[5] = 3209 μg, 8.0×28 mm stent, group 3, 3209 μg, read-out: drug concentration in tissue proximal to stented region
[6] = arterial tissue distal to stented region (unstented), 1070 μg, 10.0×28 mm stent, 1070 μg, read-out: drug concentration in tissue distal to stented region
[7] = arterial tissue of stented region, 1070 μg, 8.0×28 mm stent, group 2, 1070 μg Lot #2, read-out: drug concentration in tissue of stented region
[8] = arterial tissue of stented region, 1070 μg, 10.0×28 mm stent, 1070 μg, read-out: drug concentration in tissue of stented region
[9] = arterial tissue of the stented region, other: drug-eluting stent implanted in iliofemoral arteries, 1070 μg, 10.0×28 mm stent, 1070 μg, read-out: drug concentration in tissue of stented region
[10] = arterial tissue proximal to stented region (unstented), 1070 μg, 10.0×28 mm stent, 1070 μg, read-out: drug concentration in tissue proximal to stented region
[11] = arterial tissue, distal stented region (D), 7.0×100 mm stent, read-out: Mean Arterial Tissue Concentration, D distal stented region
[12] = arterial tissue, medial stented region (C), 7.0×100 mm stent, read-out: Mean Arterial Tissue Concentration, C medial stented region
[13] = arterial tissue, proximal stented region (B), 7.0×100 mm stent, read-out: Mean Arterial Tissue Concentration, B proximal stented region
[14] = arterial tissue, stented region, 3209 μg, 8.0×28 mm stent, group 3, 3209 μg, read-out: drug concentration in tissue of stented region
[15] = arterial tissue, unstented segment distal to stented region, 1070 μg, 8.0×28 mm stent, group 2, 1070 μg Lot #2, read-out: drug concentration in tissue distal to stented region
[16] = other: drug-eluting stent implanted in iliofemoral arteries, 1070 μg, 10.0×28 mm stent, 1070 μg, read-out: drug concentration in tissue distal to stented region
[17] = other: drug-eluting stent implanted in iliofemoral arteries, 1070 μg, 10.0×28 mm stent, 1070 μg, read-out: drug concentration in tissue proximal to stented region

CO[C@H]1C[C@@H]2CC[C@@H](C)[C@@](O)(O2)C(=O)C(=O)N2CCCC[C@H]2C(=O)O[C@H]([C@H](C)C[C@@H]2CC[C@@H](OCCO)[C@H](OC)C2)CC(=O)[C@H](C)/C=C(\C)[C@@H](O)[C@@H](OC)C(=O)[C@H](C)C[C@H](C)/C=C/C=C/C=C/1C [everolimus, 40-O-(2-hydroxyethyl)-rapamycin]
tissue Cmax (7×100 mm stent, 3777 μg everolimus): ≥ 16347 ng/g | tissue Cmax [1]: ≥ 12946 ng/g | tissue Tmax [1]: 72 h | tissue Cmax (8×28 mm stent, 1070 μg everolimus (second aspect, matches group 2)): ≥ 8709 ng/g | tissue Cmax (8×28 mm stent, 3209 μg everolimus): ≥ 22027 ng/g | tissue Cmax [2]: ≥ 6607 ng/g | tissue Tmax [2]: 72 h | Tmax (arterial tissue of the stented vessel, 1070 ug, 8×28 mm stent, 1070 μg everolimus (second aspect, matches group 2)): 72 h | Tmax (arterial tissue of the stented vessel, 3209 ug, 8×28 mm stent, 3209 μg everolimus): 72 h | Tmax (arterial tissue, 3777 ug, 7×100 mm stent, 3777 μg everolimus): 72 h | concentration at 3 days [3]: 533 ng/g | concentration at 7 days [3]: 104 ng/g | concentration at 28 days [3]: 50 ng/g | concentration at 56 days [3]: 10 ng/g | concentration at 90 days [3]: 16 ng/g | concentration at 3 days [4]: 856 ng/g | concentration at 3 days [5]: 520 ng/g | concentration at 7 days [4]: 910 ng/g | concentration at 7 days [5]: 698 ng/g | concentration at 14 days [4]: 1120 ng/g | concentration at 14 days [5]: 307 ng/g | concentration at 28 days [4]: 414 ng/g | concentration at 28 days [5]: 136 ng/g | concentration at 90 days [4]: 63 ng/g | concentration at 90 days [5]: 55 ng/g | concentration at 7 days [6]: 208 ng/g | concentration at 14 days [6]: 251 ng/g | concentration at 28 days [6]: 86 ng/g | concentration at 3 days [7]: 8710 ng/g | concentration at 7 days [7]: 3590 ng/g | concentration at 28 days [7]: 1850 ng/g | concentration at 56 days [7]: 2190 ng/g | concentration at 90 days [7]: 1270 ng/g | concentration at 14 days [8]: 4140 ng/g | concentration at 28 days [8]: 3930 ng/g | concentration at 3 days [9]: 6610 ng/g | concentration at 7 days [9]: 5100 ng/g | concentration at 90 days [9]: 2300 ng/g | concentration at 14 days [10]: 40 ng/g | concentration at 28 days [10]: 12 ng/g | concentration at 3 days [11]: 12400 ng/g | concentration at 7 days [11]: 9630 ng/g | concentration at 14 days [11]: 6530 ng/g | concentration at 28 days [11]: 4280 ng/g | concentration at 90 days [11]: 2400 ng/g | concentration at 3 days [12]: 16300 ng/g | concentration at 7 days [12]: 11400 ng/g | concentration at 14 days [12]: 5240 ng/g | concentration at 28 days [12]: 4150 ng/g | concentration at 90 days [12]: 2700 ng/g | concentration at 3 days [13]: 10900 ng/g | concentration at 7 days [13]: 7890 ng/g | concentration at 14 days [13]: 4820 ng/g | concentration at 28 days [13]: 3620 ng/g | concentration at 90 days [13]: 2210 ng/g | concentration at 3 days [14]: 22000 ng/g | concentration at 7 days [14]: 17200 ng/g | concentration at 14 days [14]: 16500 ng/g | concentration at 28 days [14]: 13200 ng/g | concentration at 90 days [14]: 2460 ng/g | concentration at 3 days [15]: 1550 ng/g | concentration at 7 days [15]: 435 ng/g | concentration at 28 days [15]: 73 ng/g | concentration at 56 days [15]: 25 ng/g | concentration at 90 days [15]: 11 ng/g | concentration at 3 days [16]: 278 ng/g | concentration at 3 days [17]: 100 ng/g | concentration at 7 days [17]: 37 ng/g | concentration at 90 days [16]: 8 ng/g | concentration at 90 days [17]: 7 ng/g | concentration at 3 days (7.0×100 mm stent, read-out: Mean Arterial Tissue Concentration, A non-stented region proximal to stented region): 269 ng/g | concentration at 3 days (7.0×100 mm stent, read-out: Mean Arterial Tissue Concentration, E non-stented region distal to stented region): 263 ng/g
